According to US7868135B2, “Compositions of lipopeptide antibiotic derivatives and methods of use thereof” (priority 2003, dated 2011):
Like-named read-outs stand apart in the source and are kept apart here. Starred links: 1 amine or outer side, 2 acyl side, 3 side chain; linkers in the order of their positions; H or OH if unused. Positions of bridges follow the written chain, without caps; N, C: chain ends. Non-standard residues stand in square brackets, D forms with d. Residues, ends and D or L forms follow the SMILES beside them. ξ: configuration not given here. *: point of attachment. ξAbu(βξ-NH2) = CC(N[*:3])C(N[*:1])C(=O)[*:2]; ξAsp(βξ-Me) = CC(C(=O)O)C(N)C(=O)O; X2 = O=C(CCc1ccc(N[*:1])cc1)[*:2]; X1 = O=C(Cc1ccc(N[*:1])cc1)[*:2]; ξAbu(3ξ-NH2) = CC(N)C(N)C(=O)O; Lauroyl = CCCCCCCCCCCC(=O)*; Pip = O=C(O)[CH]1CCCCN1

Legend:
[1] = tested on: S. aureus Smith (SAU0017, ATCC 19636); test: Intraperitoneal murine model of protection against infection (ED50, Table 21); assay type: in vivo, Staphylococcus aureus; conditions: Swiss CD1 mice infected i.p., compound i.v.
Description: (§1) A variety of in vivo models may be used to assess the antimicrobial properties of lipopeptide derivative compounds of this disclosure. For example, antimicrobial compounds of the instant disclosure may be tested for efficacy by measuring a compound's ability to protect a mouse against a microbial infection, such as an infection or disease caused by or related to Gram-positive bacteria, including Staphylococcus aureus, Streptococcus pneumoniae, and Enterococcus faecalis. […] A certain period after infection, mice are then individually treated, for example intravenously (i.v.), with a lipopeptide derivative of this disclosure.
(§2) Antimicrobial lipopeptide derivatives of the instant invention were tested for antimicrobial activity against Gram-positive bacteria in an intraperitoneal (i.p.) murine model (i.e., bacteria were injected i.p. and lipopeptide compounds were administered intravenously (i.v.)). Mice were infected with Staphylococcus aureus, Streptococcus pneumoniae, or Enterococcus faecalis, which were prepared as follows: S. aureus Smith (SAU0017, ATCC 19636) were grown in culture overnight on trypticase soy broth, harvested and then resuspended in fresh media containing 5% mucin (Sigma Chemical Co.); S. pneumoniae (SPN 0032, ATCC 10813) were grown overnight on blood agar plates and re-suspended in 0.9% sterile saline; and E. faecalis EFS0040 (clinical isolate) were grown overnight in culture on blood heart infusion broth, washed and resuspended in 0.9% saline and mixed with equal volume of sterile fecal rat extract. Swiss CD1 mice were each infected i.p. with bacteria at the following doses: S. aureus at 10^6 CFU/mouse; S. pneumoniae at 10^2 CFU/mouse; or E. faecalis at 10^7.5 CFU/mouse. […] The ED50 for each compound was calculated using the method of Reed and Meunch (Am. J. Hyg. 27: 493, 1938).

[2] = tested on: Staphylococcus aureus (MSSA)
Outline: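 Broth microdilution MIC per NCCLS M7-A6 with doubling serial dilutions, in cation-adjusted Mueller-Hinton broth supplemented with 0.625 mM calcium.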

[3] = In vivo half-life after single i.v. administration, mice; conditions: female, Swiss CD1, mouse, plasma, iv, 10 mg/kg
Procedure: Yet other exemplary in vivo models can be used to characterize the pharmacokinetics and pharmacodynamic parameters of antimicrobial compounds of this disclosure. Some parameters that can be measured include an in vivo half-life of a compound, elimination rate and clearance, volume of distribution, and bioavailability. For example, briefly, compounds can be administered as a single i.v. or oral (p.o.) dose in mice or rats. At various time points (ranging from 1 minute to 72 hours), blood from treated animals is collected and the concentration of lipopeptide derivative in the ex vivo plasma can be quantified by, for example, liquid chromatography with mass spectrometric detection (LC/MS). After quantification, pharmacokinetics parameters can be calculated using methods known in the art, such as a one compartment model with mono-exponential decay and linear regression analysis (see, e.g., Fantin et al., Antimicrob. Agents Chemotherap. 35: 1413. 1991).
A pharmacokinetic parameter that can be measured, and which aids in determining efficacy, after a single i.v. administration of an antimicrobial lipopeptide derivative of the instant disclosure is the systemic half-life of the compound. Briefly, test compounds were dissolved in a 5% mannitol solution (pH was then adjusted) to a concentration of 1 mg/mL (w/v). A single intravenous injection in the lateral caudal vein of Swiss CD1 mice (5 to 6 weeks old, female) or Sprague Dawley rats (male) was used to administer the lipopeptide derivative at a final dose of 10 mg/kg. At various time points (ranging from about 4 minutes to about 24 hours for mice, and 48 or 72 hours for rats) mice were sacrificed and blood was harvested. The concentration of lipopeptide derivative in ex vivo plasma was quantified using liquid chromatography (LC) with mass spectrometric detection (MS).

[4] = Acute toxicity, maximum tolerated dose (MTD); conditions: Swiss CD1, mouse, in vivo, iv
Procedure: Another measure of toxicity is the maximum tolerated dose (MTD), which is determined as a dose level that is not accompanied by mortality or life-threatening toxicity. The dose ratio between toxic and therapeutic effect is the therapeutic index. […] The data obtained from these cell culture assays and animal studies can be used in formulating a dosage range that is not toxic for use in human subjects. […] The dosage may vary within this range depending upon the dosage form employed and the route of administration utilized. The exact formulation, route of administration and dosage can be chosen by the individual physician in view of the patient's condition or need thereof (see, e.g., Fingl et al., 1975, In: The Pharmacological Basis of Therapeutics, Chapter 1).
For example, to examine acute toxicity, lipopeptide antibiotics of the invention can be tested in an animal model, such as Swiss CD1 mice, to determine the MTD. In certain embodiments, the animals used to test toxicity of a particular compound can be approximately 5-6 weeks old at the start of the experiment and weigh 22-26 g. The lipopeptides may be administered intravenously (i.v.) into, for example, the caudal tail vein at dose levels that range from about 50 to about 500 mg/kg, or from about 75 to about 250 mg/kg, or from about 100 to about 200 mg/kg, or at a dose range at or below 100 mg/kg. The animals are generally observed immediately after administration, 1-2 hours post administration, 5-8 hours post administration, and once daily thereafter. Observations include both the activity level of the mouse as well as any physical side effects from the administered dose. The animal weight is recorded on day 0 (immediately before dosing) and on day 7.

[5] = tested on: E. faecalis EFS0040 (clinical isolate); test: Intraperitoneal murine model of protection against infection (ED50, Table 21); assay type: in vivo, Enterococcus faecalis; conditions: Swiss CD1 mice infected i.p., compound i.v.
Description: as §1, §2

[6] = tested on: Staphylococcus epidermidis SEP0375 (MRSE); test: Broad spectrum MIC, Table 17/18 column I; assay type: cell-based; conditions: condition I of Table 17, in µg/mL
Procedure: (§3) The antimicrobial lipopeptide derivatives described herein were tested for antimicrobial activity against Gram-positive bacteria as follows. The minimum inhibitory concentrations (MIC) of the antimicrobial lipopeptide derivatives of the invention were determined using NCCLS guidelines M7-A6 (2003) with a slight modification in that doubling serial dilutions were used to dilute the test compounds. The broth phase microdilution method was used. Isolated colonies of Staphylococcus aureus (MSSA) from an 18-24 hour blood agar plate cultures were used to inoculate cation adjusted Mueller-Hinton broth (CAMHB) supplemented with 0.625 mM calcium. […] A negative control containing media alone and a positive growth control containing bacteria with media alone were also included. MICs were determined after incubating the plates at about 37° C. for 24 hours. […] In Tables 1 to 16, R is the core cyclic peptide of amphomycin or aspartocin, which can be in the form of a β-isomer, an anhydro, a dianhydro, or any combination thereof. […] Furthermore, a person of skill in the art will appreciate that all the pounds, or groups of compounds, derived from the various combinations of and substituents shown in Tables 1 to 16, are disclosed by the present the same extent as if each compound or group of compounds was set forth individually.
(§4) Antimicrobial lipopeptide derivatives of the instant invention were tested for antimicrobial activity against Gram-positive bacteria in a variety of media conditions. The […] (MIC) of the antimicrobial lipopeptide derivatives were determined as described in Example 376. The various media used are described in Table 17.

[7] = tested on: Streptococcus pneumoniae SPN0032 (PSSP); test: Broad spectrum MIC, Table 17/18 column L; assay type: cell-based; conditions: condition L of Table 17, in µg/mL
Procedure: as §3, §4

[8] = tested on: Streptococcus pyogenes SPY0001 (PenS); test: Broad spectrum MIC, Table 17/18 column M; assay type: cell-based; conditions: condition M of Table 17, in µg/mL
Procedure: as §3, §4

[9] = tested on: Streptococcus pneumoniae SPN0023 (PRSP); test: Broad spectrum MIC, Table 17/18 column K; assay type: cell-based; conditions: condition K of Table 17, in µg/mL
Procedure: as §3, §4

[10] = tested on: Staphylococcus aureus SAU0017 (MSSA); test: Broad spectrum MIC, Table 17/18 columns E, F (+ 0.625 mM calcium; + calcium and 30% bovine serum); assay type: cell-based; conditions: in µg/mL
Procedure: as §3, §4

[11] = tested on: Staphylococcus aureus SAU0031 (VISA); test: Broad spectrum MIC, Table 17/18 column G; assay type: cell-based; conditions: condition G of Table 17, in µg/mL
Procedure: as §3, §4

[12] = tested on: Enterococcus faecalis EFS0004 (VSE); test: Broad spectrum MIC, Table 17/18 B, C, D (CAMHB; + 0.625 mM calcium; + calcium and 30% bovine serum); assay type: cell-based; conditions: in µg/mL
Procedure: as §3, §4

[13] = tested on: Streptococcus pneumoniae SPN0002 (PISP); test: Broad spectrum MIC, Table 17/18 column J; assay type: cell-based; conditions: condition J of Table 17, in µg/mL
Procedure: as §3, §4

[14] = tested on: Staphylococcus aureus SAU0065 (MRSA); test: Broad spectrum MIC, Table 17/18 column H; assay type: cell-based; conditions: condition H of Table 17, in µg/mL
Procedure: as §3, §4

[15] = tested on: Enterococcus faecium EFM0101 (VRE, MDR); test: Broad spectrum MIC, Table 17/18 column A; assay type: cell-based; conditions: condition A of Table 17, in µg/mL
Procedure: as §3, §4

[16] = tested on: S. pneumoniae (SPN 0032, ATCC 10813); test: Intraperitoneal murine model of protection against infection (ED50, Table 21); assay type: in vivo, Streptococcus pneumoniae; conditions: Swiss CD1 mice infected i.p., compound i.v.
Description: as §1, §2

Compound	ED50 in Mice, S. aureus (SAU0017) [1] [mg/kg]	half-life [3] [h]	MIC ([2]; 24 h) [µg/mL]	MTD at 7 days [4] [mg/kg]	other results
CCCCCCCCCCCCCC(=O)NC(CC(=O)O)C(=O)NC1C(=O)N2CCCCC2C(=O)NC(C(C)C(=O)O)C(=O)NC(CC(=O)O)C(=O)NCC(=O)NC(CC(=O)O)C(=O)NCC(=O)NC(C(C)NC(=O)CNC)C(=O)NC(C(C)C)C(=O)N2CCCC2C(=O)NC1C (centres unmarked) [Compound 60, C14-Amphomycin-9-Sar]	10	4.13			MIC ([2]; S. aureus (MSSA), CAMHB supplemented with 0.625 mM calcium, 24 hours at about 37° C., a range = compound tested multiple times): 60/0.5 μg/mL
CC(=O)Nc1ccc(C(=O)NC(CC(=O)O)C(=O)NC2C(=O)N3CCCCC3C(=O)NC(C(C)C(=O)O)C(=O)NC(CC(=O)O)C(=O)NCC(=O)NC(CC(=O)O)C(=O)NCC(=O)NC(C(C)N)C(=O)NC(C(C)C)C(=O)N3CCCC3C(=O)NC2C)cc1 (centres unmarked) [Compound 85, C2-PABA-Amphomycin]	6.5	5.17	2 to 4	50 to 200	ED50 in Mice, E. faecalis (EFS0040) [5]: 5.7 mg/kg
CCCCCCCCCCCC(=O)Nc1ccc(CCC(=O)NC(CC(=O)O)C(=O)NC2C(=O)N3CCCCC3C(=O)NC(C(C)C(=O)O)C(=O)NC(CC(=O)O)C(=O)NCC(=O)NC(CC(=O)O)C(=O)NCC(=O)NC(C(C)N)C(=O)NC(C(C)C)C(=O)N3CCCC3C(=O)NC2C)cc1 (stereo not drawn) [Compound 108, C12-(p-Aminophenylpropanoyl)-Amphomycin] (Lauroyl-[X2]D[ξAbu(βξ-NH2)][Pip][ξAsp(βξ-Me)]DGDG[ξAbu(3ξ-NH2)]VP; lactam 3-C; configuration not given here)	6.5	4.55	0.5	50 to 200	
CCCCCCCCCCCC(=O)Nc1ccc(CC(=O)NC(CC(=O)O)C(=O)NC2C(=O)N3CCCCC3C(=O)NC(C(C)C(=O)O)C(=O)NC(CC(=O)O)C(=O)NCC(=O)NC(CC(=O)O)C(=O)NCC(=O)NC(C(C)N)C(=O)NC(C(C)C)C(=O)N3CCCC3C(=O)NC2C)cc1 (stereo not drawn) [Compound 119, C12-(p-Apa)-Amphomycin] (Lauroyl-[X1]D[ξAbu(βξ-NH2)][Pip][ξAsp(βξ-Me)]DGDG[ξAbu(3ξ-NH2)]VP; lactam 3-C; configuration not given here)	7.6	4.22	0.25	50 to 200	
CCCCCCCCCCCCC(=O)NC(CC(=O)O)C(=O)NC1C(=O)N2CCCCC2C(=O)NC(C(C)C(=O)O)C(=O)NC(CC(=O)O)C(=O)NCC(=O)NC(CC(=O)O)C(=O)NCC(=O)NC(C(C)NC(=O)CNC(=O)[C@@H](N)CCCCN)C(=O)NC(C(C)C)C(=O)N2CCCC2C(=O)NC1C (some centres unmarked) [Compound 128, C13-Amphomycin-9-Gly-Lys]	6.2	0.198			
CCCCCCCCCCCCCCNC(=O)NC(CC(=O)O)C(=O)NC1C(=O)N2CCCCC2C(=O)NC(C(C)C(=O)O)C(=O)NC(CC(=O)O)C(=O)NCC(=O)NC(CC(=O)O)C(=O)NCC(=O)NC(C(C)N)C(=O)NC(C(C)C)C(=O)N2CCCC2C(=O)NC1C (centres unmarked) [Compound 253, CH3—(CH2)13—NH—C(═O)-Amphomycin]	4.8	5.15	0.5 to 1		MIC, media condition I [6]: 1; MIC, media condition L [7]: 0.125; MIC, media condition M [8]: 0.25; MIC, media condition K [9]: 0.125; MIC, media condition E ([10]; condition E: + 0.625 mM calcium): 0.5-1; MIC, media condition F ([10]; condition F: + calcium and 30% bovine serum): 2-4; MIC, media condition G [11]: 2-4; MIC, media condition B ([12]; condition B: CAMHB): 1; MIC, media condition C ([12]; condition C: + 0.625 mM calcium): 0.5-1; MIC, media condition D ([12]; condition D: + calcium and 30% bovine serum): 16-32; MIC, media condition J [13]: 0.125; MIC, media condition H [14]: 1-2; MIC, media condition A [15]: 0.5-1
amphomycin [reference compound]	5.4				ED50 in Mice, S. pneumoniae (SPN0032) [16]: 2.0 mg/kg
aspartocin [reference compound]	5.4				ED50 in Mice, S. pneumoniae (SPN0032) [16]: 0.65 mg/kg
